Measurements from US9084735B2, “Self-assembling bis-urea compounds for drug delivery” (International Business Machines Corporation, priority 2013, dated 2015).

Columns and labels:
[1] = Zeta potential of cationic nanofibers before and after drug encapsulation (piperacillin); assay type: physicochemical; conditions: for zeta potential of nanofibers after drug loading: after piperacillin loading; for zeta potential of nanofibers before drug loading: before piperacillin loading
Text: The zeta potential of cationic nanofibers before and after drug encapsulation was investigated using the drug piperacillin and C-4 and C-14. […] The zeta potential values of nanofibers of C-14 before and after drug loading were 36.3 and 21.1 mV, respectively. The reduced zeta potential was attributed to the electrostatic interaction between cationic nanofiber and the drug. This proves the formation of a complex between cationic nanofiber and the drug.

[2] = Critical micelle concentration of cationic compounds; assay type: physicochemical; conditions: in water
[3] = system: S. aureus (ATCC No. 6538); test: MIC by broth microdilution (OD600 growth inhibition); assay type: cell-based, Staphylococcus aureus; conditions: for growth inhibition of S. aureus by nanofibers alone (OD): blank nanofibers without drug
Experimental: The minimum inhibitory concentrations (MICs) of the penG-loaded nanofibers were measured using a broth microdilution method. First, penG-loaded nanofiber solutions were diluted to give final penG concentrations of 0.05, 0.1, 0.5, 1.0, 5.0 and 10.0 mg/L. S. aureus was grown in tryptic soy broth (TSB) at 37° C. with 300 rpm. The optical density (OD) of the S. aureus solution was adjusted to OD600 nm=0.1 by the addition of TSB. This S. aureus solution was further diluted 100 times (5.7×10^6 CFU/mL). The penG-loaded nanofiber solution (100 microliters) was transferred to each well of a 96 well plate (NUNC), followed by the addition of 100 microliters of the S. aureus solution. TSB was used as a control. The optical density readings of S. aureus solutions were monitored by measuring OD600 nm at predetermined times (0 hours and 18 hours). The assay was performed in four replicates for each sample and the experiments were repeated at least three times.

[4] = Nanofiber morphology by TEM; assay type: physicochemical; conditions: C-4 200 mg/L, C-14 80 mg/L
Experimental: The morphologies of the cationic compounds were analyzed by TEM (FEI Tecnai G^2 F20 electron microscope). Cationic compounds solution (5 microliters) were placed on a copper grid coated with carbon film and incubated for 1 minute. Phosphotungstic acid solution (0.1 w/v, 5 microliters) was applied and incubated for another minute. The extra sample on the grid was absorbed by filter paper. The samples were air-dried at room temperature. The TEM observations were carried out with an electron kinetic energy of 200 keV.
FIGS. 2A to 2C are transmission electron micrographs (TEM) of a cast film of the nanofibers formed with C-4 at different magnifications.

[5] = Nanofiber dimensions by AFM; assay type: physicochemical; conditions: film/solution on mica
Experimental: Atomic force microscopy (AFM) images were acquired on commercial instrumentation under fluid in intermittent contact (‘tapping’) mode at a 0.5 Hz scan rate with silicon on nitride cantilevers of spring constant about 0.35 N/m. For this study, images were collected over scan areas from 1×1 micrometer to 10×10 micrometers at 1024×1024 pixel resolution. Samples were prepared by depositing 60 microliters of polymer solution (at a concentration appropriate for imaging) in water on mica. The statistical mean height (zm) of the nanoparticles was obtained through Gwyddion software for particle analysis using height threshold algorithm.
The dry nanofiber AFM (FIG. 3A) and solution AFM (FIGS. 3B and 3C) of nanofibers formed with C-4 show anisotropic structures having considerably shorter lengths and an average diameter of 4 nm.

| minimum concentration suppressing growth (MIC) ([3]; penG concentration, 18 hours, 5.7×10^6 CFU/mL, TSB) [µg/mL] | average fiber diameter (AFM) [5] [nm] | Compound | zeta potential of nanofibers after drug loading [1] [mV] | zeta potential of nanofibers before drug loading [1] [mV] | CMC [2] [mg/L] | growth inhibition of S. aureus by nanofibers alone (OD) [3] | fiber diameter (TEM) [4] [nm] | fiber length (TEM) [4] |
| --- | --- | --- | --- | --- | --- | --- | --- | --- |
| – | – | NCc1ccc(CNC(=O)Nc2ccc(CNC(=O)c3ccc(C(=O)NCc4ccc(NC(=O)NCc5ccc(CN)cc5)cc4)cc3)cc2)cc1 [Compound C-14] | 21.1 | 36.3 | 20 | do not inhibit growth | ~5 | several hundred |
| 0.05 | – | CC1(C)S[C@@H]2[C@H](NC(=O)Cc3ccccc3)C(=O)N2[C@H]1C(=O)[O-].[K+] [penG, Penicillin G potassium salt, reference compound] | – | – | – | – | – | – |
| – | 4 | NCCCCNC(=O)Nc1ccc(CNC(=O)c2ccc(C(=O)NCc3ccc(NC(=O)NCCCCN)cc3)cc2)cc1 [Compound C-4] | 23.1 | 35.2 | 12 | do not inhibit growth | – | several hundred |
